Patent US9862682B2, “Functionalized pegylated cyanine compounds, pharmaceutical compositions, and methods of use thereof” (BroadPharm, priority 2016, dated 2018)

Test: Photophysical properties of cyanine dyes in dimethyl sulfoxide (DU 800 spectrophotometer)
Format: physicochemical
Settings: for Excitation (nm): absorption
Description: The photophysical properties of a variety of cyanine dyes in dimethyl sulfoxide has been measured by the DU 800 spectrophotometer.

| Structure (SMILES) | Emission (nm) | Extinction Coefficient | Excitation (nm) |
| --- | --- | --- | --- |
| COCCOCCOCCOCC[N+]1=C(/C=C/C=C/C=C2\Sc3ccccc3N2CCOCCOCCOCCC(=O)O)C(C)(C)c2ccccc21 [G1] | 685 nm | 7.65 × 10^4 | 661 nm |
| CC1(C)C(/C=C/C=C/C=C2\N(CCOCCOCCOCCOCCC(=O)NCCN3C(=O)C=CC3=O)c3ccccc3C2(C)C)=[N+](CCOCCOCCOCCN=[N+]=[N-])c2ccccc21 [D3] | 667 nm | 6.94 × 10^4 | 649 nm |
| COCCOCCOCCOCCN1/C(=C/C=C/C=C/C2=[N+](CCOCCOCCOCCN=[N+]=[N-])c3ccccc3C2(C)C)Sc2ccccc21 [G2] | 671 nm | 4.23 × 10^4 | 652 nm |
| COCCOCCOCCOCC[n+]1c(/C=C/C=C/C=C2\Sc3ccccc3N2CCOCCOCCOCCC(=O)O)sc2ccccc21 [E1] | 682 nm | 7.11 × 10^4 | 661 nm |
| CC1(C)C(/C=C/C2=C(Cl)C(=C/C=C3/N(CCOCCOCCOCCN=[N+]=[N-])c4ccccc4C3(C)C)/CCC2)=[N+](CCOCCOCCOCCN=[N+]=[N-])c2ccccc21 [F1] | 817 nm | 1.16 × 10^5 | 785 nm |
| COCCOCCOCCOCC[N+]1=C(/C=C/C=C/C=C2\N(CCOCCOCCOCCOCCC(=O)NCCC(=O)N3Cc4ccccc4C#Cc4ccccc43)c3ccccc3C2(C)C)C(C)(C)c2ccccc21 [D4] | 667 nm | 6.42 × 10^4 | 649 nm |
| COCCOCCOCCOCC[N+]1=C(/C=C/C=C/C=C2/N(CCOCCOCCOCCN)c3ccccc3C2(C)C)C(C)(C)c2ccccc21 [A2] | 667 nm | 1.63 × 10^5 | 649 nm |
| C#CCOCCOCCOCCOCCOc1ccc2c(c1)C(C)(C)\C(=C/C=C\C=C/C1=[N+](C)c3ccc(OCCOCCOCCOCCOC)cc3C1(C)C)N2C [B1] | 699 nm | 6.12 × 10^4 | 649 nm |
| O=C(O)CCOCCOCCOCCN1\C(=C/C=C\C=C\c2sc3ccccc3[n+]2CCOCCOCCOCCC(=O)O)Sc2ccccc21 [E2] | 682 nm | 7.31 × 10^4 | 661 nm |
